Experimental data published in patent publication US8664277B2, “Compounds and methods for PKCθ inhibition” (Complegen Partners, LLC, priority 2008, dated 2014).
pEC50, pIC50: −log10 of the molar value. Where two headings read alike, the source gives them in different places.

How the values were obtained:
[1] = molecular target: T1, Human PKC theta (Homo sapiens, UniProt Q04759); experiment: XenoGene yeast growth inhibition, yeast containing human PKC theta gene; assay type: cell-based
T1 construct: expressed in transfected cells; host or cells: yeast (XenoGene strain)
Excerpt: Using the XenoGene™ system described within, compounds inhibiting PKCθ are identified. The XenoGene™ system is a technology developed and patented by CompleGen wherein genes (“XenoGenes”™) from a target organism (e.g. humans) are used to functionally replace essential genes of a simple organism (yeast). These modified yeast are used to select compounds that act specifically on the protein encoded by the target gene and eliminate compounds that are not specific. […]

[2] = molecular target: T2, PKC delta (Homo sapiens, UniProt Q05655); experiment: XenoGene counter-screen, PKC delta; assay type: cell-based; conditions: inverse of (PKC-theta IC50)/(PKC-X IC50)
T2 construct: expressed in transfected cells; host or cells: yeast (XenoGene strain)
Protocol: (§1) To identify compounds as being selective PKC theta inhibitors the IC50 values are determined against XenoGene™ strains containing other XenoGenes™, especially certain other PKC genes (see Example 10).
(§2) Human PKC theta gene (cDNA) was used to generate a XenoGene™ system as previously described (U.S. Pat. Nos. 6,998,261, 6,232,074), which was used to screen compounds in a chemical compound library. XenoGene™ systems used as counter-screens were constructed similarly using the gene for the appropriate counter-screen target. In particular, human genes (cDNA) encoding PKC delta, PKC eta and PKC epsilon were used to generate XenoGene™ systems.

[3] = molecular target: T3, PKC epsilon (Homo sapiens, UniProt Q02156); experiment: XenoGene counter-screen, PKC epsilon; assay type: cell-based; conditions: inverse of (PKC-theta IC50)/(PKC-X IC50)
T3 construct: expressed in transfected cells; host or cells: yeast (XenoGene strain)
T3 sequence (Q02156 1-737): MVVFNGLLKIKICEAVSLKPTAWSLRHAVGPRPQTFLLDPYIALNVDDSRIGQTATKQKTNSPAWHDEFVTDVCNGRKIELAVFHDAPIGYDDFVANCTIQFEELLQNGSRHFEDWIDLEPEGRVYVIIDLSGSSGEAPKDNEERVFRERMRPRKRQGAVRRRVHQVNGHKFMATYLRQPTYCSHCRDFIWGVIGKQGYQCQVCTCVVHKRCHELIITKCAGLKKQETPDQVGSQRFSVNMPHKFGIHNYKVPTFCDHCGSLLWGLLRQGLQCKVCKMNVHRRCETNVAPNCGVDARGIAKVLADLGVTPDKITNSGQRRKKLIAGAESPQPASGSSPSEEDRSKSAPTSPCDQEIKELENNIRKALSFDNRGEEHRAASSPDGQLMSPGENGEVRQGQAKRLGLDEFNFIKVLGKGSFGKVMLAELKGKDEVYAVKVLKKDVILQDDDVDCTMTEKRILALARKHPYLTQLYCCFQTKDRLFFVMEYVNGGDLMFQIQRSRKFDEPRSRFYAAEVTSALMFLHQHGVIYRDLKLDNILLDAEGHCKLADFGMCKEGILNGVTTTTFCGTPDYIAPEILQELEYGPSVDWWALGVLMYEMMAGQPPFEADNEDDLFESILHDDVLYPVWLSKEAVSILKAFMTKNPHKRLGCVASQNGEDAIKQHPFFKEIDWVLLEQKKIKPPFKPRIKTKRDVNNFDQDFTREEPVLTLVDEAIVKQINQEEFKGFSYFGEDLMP
Protocol: as §1, §2

[4] = molecular target: T4, yeast PKC1 (Saccharomyces cerevisiae, UniProt P24583); experiment: XenoGene counter-screen, yeast PKC1; assay type: cell-based; conditions: inverse of (PKC-theta IC50)/(PKC-X IC50)
T4 construct: endogenous in cells; host or cells: yeast control strain
T4 sequence (P24583 1-1151): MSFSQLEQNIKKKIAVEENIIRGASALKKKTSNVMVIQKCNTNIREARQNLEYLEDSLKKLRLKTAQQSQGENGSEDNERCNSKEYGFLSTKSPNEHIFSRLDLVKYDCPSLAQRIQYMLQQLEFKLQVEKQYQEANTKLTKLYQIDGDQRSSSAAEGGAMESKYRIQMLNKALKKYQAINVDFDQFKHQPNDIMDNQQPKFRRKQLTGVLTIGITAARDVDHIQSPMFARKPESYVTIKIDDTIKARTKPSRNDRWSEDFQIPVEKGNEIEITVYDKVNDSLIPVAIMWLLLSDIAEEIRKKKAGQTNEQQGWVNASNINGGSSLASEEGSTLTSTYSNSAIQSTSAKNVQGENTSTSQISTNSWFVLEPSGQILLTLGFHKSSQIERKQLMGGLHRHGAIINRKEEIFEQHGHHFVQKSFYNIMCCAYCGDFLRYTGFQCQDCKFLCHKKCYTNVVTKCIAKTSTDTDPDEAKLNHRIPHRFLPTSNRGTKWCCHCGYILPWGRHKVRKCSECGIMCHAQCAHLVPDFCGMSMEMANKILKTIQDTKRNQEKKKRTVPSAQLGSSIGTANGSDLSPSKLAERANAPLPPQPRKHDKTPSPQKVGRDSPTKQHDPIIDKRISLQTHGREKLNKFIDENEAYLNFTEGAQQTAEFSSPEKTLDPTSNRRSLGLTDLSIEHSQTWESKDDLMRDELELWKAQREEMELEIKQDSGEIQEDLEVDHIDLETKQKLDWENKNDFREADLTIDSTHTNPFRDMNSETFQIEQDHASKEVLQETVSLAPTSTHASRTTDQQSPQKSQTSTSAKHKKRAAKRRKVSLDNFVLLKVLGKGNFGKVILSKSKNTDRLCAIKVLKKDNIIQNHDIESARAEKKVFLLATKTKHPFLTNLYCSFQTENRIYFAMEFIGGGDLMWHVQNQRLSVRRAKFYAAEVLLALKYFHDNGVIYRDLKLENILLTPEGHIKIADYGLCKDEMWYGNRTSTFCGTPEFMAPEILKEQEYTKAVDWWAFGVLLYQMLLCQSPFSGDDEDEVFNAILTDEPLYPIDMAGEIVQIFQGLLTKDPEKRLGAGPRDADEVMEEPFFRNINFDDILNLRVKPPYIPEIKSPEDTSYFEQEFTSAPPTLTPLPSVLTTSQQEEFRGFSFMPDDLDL
Excerpt: Using the XenoGene™ system described within, compounds inhibiting PKCθ are identified. The XenoGene™ system is a technology developed and patented by CompleGen wherein genes (“XenoGenes”™) from a target organism (e.g. humans) are used to functionally replace essential genes of a simple organism (yeast). These modified yeast are used to select compounds that act specifically on the protein encoded by the target gene and eliminate compounds that are not specific. XenoGene™ constructs provide a very high throughput screening system that allows identification of compounds active on the function of the target protein in a cell under physiological conditions on “first-pass” screening and further, to selectively counter-screen against 200 human targets or more if necessary. […] The relative potencies of the active compounds is determined by titration to find the concentration of compound providing 50% inhibition of growth (IC50) against the yeast containing the target gene (Table 1).
as §2

[5] = system: T cell lymphomas; experiment: Inhibition of T cell lymphomas, live cells counted by flow cytometry; assay type: cell-based, mouse; conditions: for pEC50: Mus musculus, T-cell, 96 h, 4 days growth
Excerpt: The compounds of the present invention can also be screened for the ability to inhibit T cell lymphomas. Assays for inhibiting T cell lymphomas are known to one of skill in the art. In some embodiments, the assay involves mice generated from the nucleus of a mature T cell with a “fixed” rearranged T cell receptor. These T cells spontaneously generate T cell lymphomas which resemble human T cell lymphomas. T cell lymphomas isolated from the mice can then be treated with compounds of the present invention. After sufficient time to allow for cell growth, live cells are counted by flow cytometry (Serwold et al. (2007) J. Immunol. 179; 928). One of skill in the art will appreciate that other assays are useful in the present invention.
(§3) Mice generated from the nucleus of a mature T cell (see Hochedlinger K, Jaenisch R. (2002) Nature 415; 1035) with a “fixed” rearranged T cell receptor spontaneously generate T cell lymphomas which resemble human T cell lymphomas. Several T cell lymphomas (1-4) isolated from these mice were treated with compound 471. All T cell lymphomas were inhibited by compound 471. A B-cell hybridoma served as a non-T cell control and was not affected by the compound. Cells were seeded into 96-well plates (5,000 cells/well) in the presence of compound 471 at concentrations ranging from 0.1 to 5 uM. After 4 days growth (37° C., 5% CO2), live cells were counted by flow cytometry (Serwold et al. (2007) J. Immunol. 179; 928)

[6] = molecular target: T5, PKC eta (Homo sapiens, UniProt P24723); experiment: XenoGene counter-screen, PKC eta; assay type: cell-based; conditions: inverse of (PKC-theta IC50)/(PKC-X IC50)
T5 construct: expressed in transfected cells; host or cells: yeast (XenoGene strain)
Protocol: as §1, §2

[7] = system: Mouse splenic T cells; experiment: Inhibition of naive T cell activation (anti-CD3/anti-CD28), 3H-TdR incorporation; assay type: cell-based; conditions: three days, control without compound 31571
Protocol: Inhibition of naïve T cell activation by compound 471. Mouse splenic T cells were isolated from unimmunized mice by magnetic negative selection (Miltenyi®, Untouched T Cell Isolation Kit) or FACS using anti-CD3-PE-Cy7. Isolated T cells were incubated in microtiter wells coated with anti-CD3 monoclonal antibody and soluble anti-CD28 monoclonal antibody, 10^5 cells/100 μl in 10% FBS-RPMI as above, for three days. Proliferation was measured by ^3H-TdR incorporation.

[8] = system: B-cell hybridoma; experiment: B-cell hybridoma non-T cell control, live cells counted by flow cytometry; assay type: cell-based
Protocol: as §3

[9] = 50% inhibition of growth of yeast containing the target gene, read-out: IC50
[10] = XenoGene system, read-out: PKC-theta IC50
[11] = IC50, 50% inhibition of growth of yeast containing the target gene

T2 sequence (Q05655 whole entry): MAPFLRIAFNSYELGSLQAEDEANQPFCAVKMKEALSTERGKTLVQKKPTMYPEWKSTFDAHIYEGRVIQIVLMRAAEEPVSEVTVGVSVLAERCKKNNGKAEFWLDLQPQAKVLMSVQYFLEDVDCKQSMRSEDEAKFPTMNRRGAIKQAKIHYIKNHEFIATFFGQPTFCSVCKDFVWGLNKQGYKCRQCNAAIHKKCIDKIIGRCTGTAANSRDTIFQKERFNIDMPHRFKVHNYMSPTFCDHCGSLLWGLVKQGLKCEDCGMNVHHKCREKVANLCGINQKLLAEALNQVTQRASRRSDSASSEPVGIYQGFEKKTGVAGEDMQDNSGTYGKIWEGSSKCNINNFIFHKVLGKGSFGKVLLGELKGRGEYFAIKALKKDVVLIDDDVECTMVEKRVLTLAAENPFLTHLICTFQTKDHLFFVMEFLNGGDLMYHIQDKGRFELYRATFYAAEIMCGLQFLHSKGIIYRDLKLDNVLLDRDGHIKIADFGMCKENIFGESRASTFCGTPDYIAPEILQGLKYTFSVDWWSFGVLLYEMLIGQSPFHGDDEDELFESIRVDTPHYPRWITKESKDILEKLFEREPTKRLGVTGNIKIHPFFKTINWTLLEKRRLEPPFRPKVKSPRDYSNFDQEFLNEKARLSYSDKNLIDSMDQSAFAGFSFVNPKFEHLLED
T5 sequence (P24723 whole entry): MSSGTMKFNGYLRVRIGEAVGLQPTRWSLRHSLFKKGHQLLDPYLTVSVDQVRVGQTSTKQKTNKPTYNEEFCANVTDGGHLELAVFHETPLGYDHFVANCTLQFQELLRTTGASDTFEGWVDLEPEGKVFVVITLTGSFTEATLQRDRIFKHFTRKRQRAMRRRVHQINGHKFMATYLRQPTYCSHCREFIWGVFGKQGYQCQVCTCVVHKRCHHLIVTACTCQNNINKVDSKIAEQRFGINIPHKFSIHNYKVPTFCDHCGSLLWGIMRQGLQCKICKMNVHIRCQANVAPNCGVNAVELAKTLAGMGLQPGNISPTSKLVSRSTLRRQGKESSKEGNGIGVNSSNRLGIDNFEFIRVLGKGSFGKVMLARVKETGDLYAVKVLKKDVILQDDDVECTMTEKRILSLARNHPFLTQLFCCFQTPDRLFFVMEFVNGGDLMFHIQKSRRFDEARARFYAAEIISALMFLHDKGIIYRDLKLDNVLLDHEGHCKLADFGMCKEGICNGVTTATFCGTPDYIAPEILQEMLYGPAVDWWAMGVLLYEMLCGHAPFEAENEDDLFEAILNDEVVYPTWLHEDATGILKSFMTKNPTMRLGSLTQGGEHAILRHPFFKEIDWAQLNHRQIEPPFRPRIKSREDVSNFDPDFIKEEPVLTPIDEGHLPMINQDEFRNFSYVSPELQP
T1 sequence (Q04759 whole entry): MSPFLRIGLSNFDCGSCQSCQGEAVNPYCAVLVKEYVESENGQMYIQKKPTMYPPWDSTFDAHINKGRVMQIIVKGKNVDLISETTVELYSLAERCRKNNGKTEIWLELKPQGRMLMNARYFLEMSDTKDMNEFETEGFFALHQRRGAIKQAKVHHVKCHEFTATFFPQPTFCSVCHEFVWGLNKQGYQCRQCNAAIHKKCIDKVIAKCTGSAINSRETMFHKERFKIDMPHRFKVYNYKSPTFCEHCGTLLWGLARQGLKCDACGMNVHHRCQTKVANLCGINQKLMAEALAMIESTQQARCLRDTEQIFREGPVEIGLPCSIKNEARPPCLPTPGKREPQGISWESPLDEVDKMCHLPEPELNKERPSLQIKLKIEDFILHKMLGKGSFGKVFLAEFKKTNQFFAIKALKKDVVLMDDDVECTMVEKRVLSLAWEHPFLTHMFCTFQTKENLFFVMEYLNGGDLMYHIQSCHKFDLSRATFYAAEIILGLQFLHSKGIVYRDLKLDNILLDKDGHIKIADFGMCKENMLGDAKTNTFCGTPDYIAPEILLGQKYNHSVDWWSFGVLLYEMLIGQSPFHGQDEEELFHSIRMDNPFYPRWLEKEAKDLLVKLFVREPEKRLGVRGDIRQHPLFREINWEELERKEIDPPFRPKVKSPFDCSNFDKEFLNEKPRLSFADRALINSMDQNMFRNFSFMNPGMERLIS

Row | pIC50 [1, 9] | pIC50 [1, 10] | Selectivity for PKC-theta v. PKC-delta [2] | Selectivity for PKC-theta v. PKC-epsilon [3] | Selectivity for PKC-theta v. PKC-eta [6] | SMILES | other results
1 | < 5.00 | – | – | – | – | CC(C)(C)c1ccc(Oc2ccc(N)nc2)cc1 [Compound 486] | –
2 | > 6.00 | – | – | – | – | Nc1ccc(Oc2ccc(OC(F)(F)F)cc2Cl)cc1 [Compound 498] | –
3 | – | – | – | – | – | Nc1ccc(Oc2ccc(C(F)(F)F)cc2Cl)cc1 [Compound 499] | pIC50 [1, 11]: > 6.00
4 | < 5.00 | – | – | – | – | Nc1ccc(Oc2ccccc2)cc1 [Compound 500] | –
5 | – | – | – | – | – | CC(=O)Nc1ccc(Oc2ccc(Cl)cc2Cl)cc1 [Compound 501] | pIC50 [1, 11]: < 5.00
6 | 5.00 to 6.00 | 5.80 | 8.1 | 8.8 | 1.8 | Nc1ccc(Oc2cc(Cl)cc(Cl)c2)cc1 [Compound 504] | –
7 | > 6.00 | 6.40 | 13 | 11 | 3.0 | Cc1cc(Oc2ccc(N)cc2)ccc1Cl [Compound 505] | –
8 | 5.00 to 6.00 | 5.80 | 1.9 | 2.5 | 0.63 | Nc1ccc(Oc2ccc(Cl)cc2Cl)cc1 [Compound 506, 4-(2,4-dichlorophenoxy)aniline] | Selectivity for PKC-theta v. yeast PKC1 [4]: 9.4
9 | 5.00 to 6.00 | – | – | – | – | Cc1cc(Oc2ccc(N)cc2)ccc1Cl [Compound 507] | –
10 | 5.00 to 6.00 | – | – | – | – | Cc1ccc(Oc2ccc(N)cc2)cc1 [Compound 508] | –
11 | > 6.00 | – | – | – | – | Nc1ccc(Oc2ccc(OC(F)(F)F)cc2)cc1 [Compound 510] | –

Row | SMILES | pIC50 [1, 9] | pIC50 [1, 10] | Selectivity for PKC-theta v. PKC-delta [2] | Selectivity for PKC-theta v. PKC-epsilon [3] | Selectivity for PKC-theta v. PKC-eta [6] | other results
12 | CC(C)(C)c1ccc(Oc2ccc(N)cc2)cc1 [Compound 471] | > 6.00 | 6.85 | 2.5 | 1.1 | 0.36 | Selectivity for PKC-theta v. yeast PKC1 [4]: 28; pEC50 ([5]; Lymphoma 1): 6.15; pEC50 ([5]; Lymphoma 2): 6.70; pEC50 ([5]; Lymphoma 4): > 7.00; pEC50 ([5]; Lymphoma 5): 6.15; Inhibition of T cell lymphomas ([5]; all T cell lymphomas, 0.1 to 5 uM): inhibited; 3H-TdR cpm ([7]; 0.5 uM compound): 21928 cpm; 3H-TdR cpm ([7]; 1.0 uM compound): 880 cpm; pEC50 ([8]; 96 h, B-cell Hybridoma, 4 days growth): < 5.30; Effect on B-cell hybridoma ([8]; non-T cell control, 0.1 to 5 uM): not affected
